Reference: patent US12187699B2, “GSPT1 compounds and methods of use of the novel compounds” (BRISTOL-MYERS SQUIBB COMPANY, priority 2022, dated 2025)

molecular target: T1, ePL-tagged GSPT1 (Homo sapiens, UniProt P15170+Q96SW2); assay: GSPT1 DiscoverX Degradation Assay; format: cell-based; conditions: DF15 multiple myeloma cells expressing ePL-tagged GSPT1; twenty hours; minimum of percent of control curve (Ataluren control Y constant=0, DMSO control = Y max)
T1 construct: expressed in transfected cells; host or cells: DF15 multiple myeloma cells
Method: GSPT1 DiscoverX Degradation Assay.
Compounds were dispensed by an acoustic dispenser (ATS Acoustic Transfer System from EDC Biosystems) into a 384-well in a 10 pt dose response curve using 3 fold dilutions starting at 10 uM and going down to 0.0005 uM in DMSO. A DMSO control is added to the assay. […] Assay plates were incubated at 37° C. with 5% CO2 for twenty hours. After incubation, 25 μl of the InCELL Hunter™ Detection Reagent Working Solution (DiscoverX, cat #96-0002, Fremont, CA) was added to each well and incubated at room temperature for 30 minutes protected from light. After 30 minutes, luminescence was read on a PHERAstar luminometer (Cary, NC).
The minimum Y is reference to the Y constant. In the GSPT1 degradation assay, we use Ataluren® (luciferase inhibitor) as the control with a Y constant=0. The maximum limit is the Y max DMSO control. All percent of control GSPT1 degradation curves were processed and evaluated using Activity Base (IDBS).

T1 sequence (P15170 whole entry): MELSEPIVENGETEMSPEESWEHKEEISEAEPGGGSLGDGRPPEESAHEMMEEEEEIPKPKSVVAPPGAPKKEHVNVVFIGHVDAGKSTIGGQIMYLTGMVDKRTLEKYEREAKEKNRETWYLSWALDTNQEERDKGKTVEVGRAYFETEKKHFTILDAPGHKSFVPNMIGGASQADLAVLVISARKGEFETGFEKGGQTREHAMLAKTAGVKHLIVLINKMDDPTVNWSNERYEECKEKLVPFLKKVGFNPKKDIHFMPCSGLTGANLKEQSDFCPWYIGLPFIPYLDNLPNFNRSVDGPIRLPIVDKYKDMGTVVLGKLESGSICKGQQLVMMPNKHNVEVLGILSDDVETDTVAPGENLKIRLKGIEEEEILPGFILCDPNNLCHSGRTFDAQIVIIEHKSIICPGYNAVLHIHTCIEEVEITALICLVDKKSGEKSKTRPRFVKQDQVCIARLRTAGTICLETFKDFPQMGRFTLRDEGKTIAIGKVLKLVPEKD
T1 sequence (Q96SW2 whole entry): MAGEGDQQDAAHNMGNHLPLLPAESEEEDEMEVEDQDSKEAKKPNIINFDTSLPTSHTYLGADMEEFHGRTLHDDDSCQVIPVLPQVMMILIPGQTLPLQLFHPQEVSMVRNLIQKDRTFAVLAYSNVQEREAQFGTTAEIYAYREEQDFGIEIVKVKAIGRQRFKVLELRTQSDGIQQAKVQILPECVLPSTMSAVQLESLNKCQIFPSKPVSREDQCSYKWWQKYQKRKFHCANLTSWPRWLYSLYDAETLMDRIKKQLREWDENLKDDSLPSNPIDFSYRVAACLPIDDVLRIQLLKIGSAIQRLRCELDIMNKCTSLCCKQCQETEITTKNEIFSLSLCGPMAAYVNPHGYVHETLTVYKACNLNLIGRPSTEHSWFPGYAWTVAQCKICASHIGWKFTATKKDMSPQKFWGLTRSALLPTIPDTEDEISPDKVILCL
T1 sequence (Q16531 whole entry partner): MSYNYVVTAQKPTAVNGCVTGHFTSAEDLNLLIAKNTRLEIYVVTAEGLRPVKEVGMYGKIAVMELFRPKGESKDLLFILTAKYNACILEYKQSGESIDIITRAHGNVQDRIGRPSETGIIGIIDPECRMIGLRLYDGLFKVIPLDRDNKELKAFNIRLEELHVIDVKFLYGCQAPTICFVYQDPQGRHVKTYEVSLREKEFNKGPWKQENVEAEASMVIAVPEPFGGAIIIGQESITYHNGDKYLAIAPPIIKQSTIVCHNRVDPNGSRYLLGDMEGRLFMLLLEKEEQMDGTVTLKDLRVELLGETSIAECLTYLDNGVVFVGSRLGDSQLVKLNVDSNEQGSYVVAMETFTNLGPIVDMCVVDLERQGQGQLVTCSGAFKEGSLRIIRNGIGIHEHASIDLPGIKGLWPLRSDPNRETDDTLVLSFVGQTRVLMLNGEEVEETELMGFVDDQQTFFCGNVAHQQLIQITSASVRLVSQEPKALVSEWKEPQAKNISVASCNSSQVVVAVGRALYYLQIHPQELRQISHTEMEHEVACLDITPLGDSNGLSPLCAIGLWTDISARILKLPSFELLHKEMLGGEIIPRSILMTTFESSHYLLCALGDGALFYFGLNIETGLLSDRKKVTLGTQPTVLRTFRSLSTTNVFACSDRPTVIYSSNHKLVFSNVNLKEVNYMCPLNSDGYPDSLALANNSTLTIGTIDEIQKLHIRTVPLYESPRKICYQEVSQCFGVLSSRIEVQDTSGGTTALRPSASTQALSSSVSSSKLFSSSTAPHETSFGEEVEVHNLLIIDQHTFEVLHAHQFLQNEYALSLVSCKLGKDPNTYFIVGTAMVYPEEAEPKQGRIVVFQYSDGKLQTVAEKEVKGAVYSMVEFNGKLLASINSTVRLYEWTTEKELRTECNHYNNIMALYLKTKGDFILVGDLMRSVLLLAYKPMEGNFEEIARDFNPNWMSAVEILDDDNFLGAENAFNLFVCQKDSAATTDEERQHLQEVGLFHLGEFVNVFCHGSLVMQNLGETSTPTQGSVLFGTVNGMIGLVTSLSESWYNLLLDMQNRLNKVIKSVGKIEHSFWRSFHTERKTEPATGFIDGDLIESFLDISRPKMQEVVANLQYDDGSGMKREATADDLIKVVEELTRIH

| SMILES | GSPT1 Degradation Ymin |
| --- | --- |
| NCc1ccc(COc2ccc(NC(=O)NCc3ccc4c(c3)CN(C3CCC(=O)NC3=O)C4=O)cc2)c(C2CC2)c1 (stereo not drawn) [Example 27, 1-(4-{[4-(aminomethyl)-2-cyclopropylphenyl]methoxy}phenyl)-3-{[2-(2,6-dioxopiperidin-3-yl)-1-oxo-2,3-dihydro-1H-isoindol-5-yl]methyl}urea] | 6.15 |
| Nc1ccccc1COc1ccc(NC(=O)NCc2ccc3c(c2)CN(C2CCC(=O)NC2=O)C3=O)cc1 (stereo not drawn) [Example 28, 1-(4-((2-aminobenzyl)oxy)phenyl)-3-((2-(2,6-dioxopiperidin-3-yl)-1-oxoisoindolin-5-yl)methyl)urea] | 10.20 |
| NCc1ccc(COc2ccc(NC(=O)NCc3ccc4c(c3)CN(C3CCC(=O)NC3=O)C4=O)cc2Cl)cc1 (stereo not drawn) [Example 29, 1-(4-((4-(aminomethyl)benzyl)oxy)-3-chlorophenyl)-3-((2-(2,6-dioxopiperidin-3-yl)-1-oxoisoindolin-5-yl)methyl)urea] | 16.88 |
| CC(C)c1cc(CN)ccc1COc1ccc(NC(=O)NCc2ccc3c(c2)CN(C2CCC(=O)NC2=O)C3=O)cc1 (stereo not drawn) [Example 30, 1-(4-{[4-(aminomethyl)-2-i-propylphenyl]methoxy}phenyl)-3-{[2-(2,6-dioxopiperidin-3-yl)-1-oxo-2,3-dihydro-1H-isoindol-5-yl]methyl}urea] | 10.86 |
| NCc1ccc(COc2ccc(NC(=O)NCc3ccc4c(c3)CN(C3CCC(=O)NC3=O)C4=O)cc2)c(OC(F)F)c1 (stereo not drawn) [Example 31, 1-(4-{[4-(aminomethyl)-2-diflouromethoxyphenyl]methoxy}phenyl)-3-{[2-(2,6-dioxopiperidin-3-yl)-1-oxo-2,3-dihydro-1H-isoindol-5-yl]methyl}urea] | 7.07 |
| C[C@]1(N2Cc3cc(CNC(=O)Nc4ccc(OCc5ccc(CN)cc5)cc4)ccc3C2=O)CCC(=O)NC1=O [Example 32, 1-(4-{[4-(aminomethyl)phenyl]methoxy}phenyl)-3-({2-[(3S)-3-methyl-2,6-dioxopiperidin-3-yl]-1-oxo-2,3-dihydro-1H-isoindol-5-yl}methyl)urea] | 22.76 |
| C[C@@]1(N2Cc3cc(CNC(=O)Nc4ccc(OCc5ccc(CN)cc5)cc4)ccc3C2=O)CCC(=O)NC1=O [Example 33, 1-(4-{[4-(aminomethyl)phenyl]methoxy}phenyl)-3-({2-[(3R)-3-methyl-2,6-dioxopiperidin-3-yl]-1-oxo-2,3-dihydro-1H-isoindol-5-yl}methyl)urea] | 60.95 |
| NC[C@H]1CC[C@H](COc2ccc(NC(=O)NCc3ccc4c(c3)CN(C3CCC(=O)NC3=O)C4=O)cc2)CC1 (stereo partly drawn) [Example 34, 3-{[2-(2,6-dioxopiperidin-3-yl)-1-oxo-2,3-dihydro-1H-isoindol-5-yl]methyl}-1-(4-{[(1r,4r)-4-(aminomethyl)cyclohexyl]methoxy}phenyl)urea] | 7.47 |
| NCc1ccc(CO[C@H]2CC[C@H](NC(=O)NCc3ccc4c(c3)CN(C3CCC(=O)NC3=O)C4=O)CC2)cc1 (stereo partly drawn) [Example 35, 3-{[2-(2,6-dioxopiperidin-3-yl)-1-oxo-2,3-dihydro-1H-isoindol-5-yl]methyl}-1-[(1r,4r)-4-{[4-(aminomethyl)phenyl]methoxy}cyclohexyl]urea] | 17.59 |
